Experiments:
Experiment in all cases: relative viability (nuclei count vs DMSO), 5 days (fraction); higher = more cells survive
[1] = compound: CN(C)C[C@@H]1CCn2cc(c3ccccc32)C2=C(C(=O)NC2=O)c2cn(c3ccccc23)CCO1 [Ruboxistaurin] + Cc1nc(NC(=O)N2CCC[C@H]2C(N)=O)sc1-c1ccnc(C(C)(C)C(F)(F)F)c1 [Alpelisib] (partner 2 µM)
Summary of the method: (§1)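 Relative viability is defined as nuclei in treated wells over nuclei in vehicle wells. Duplicate plates were run and medians reported. Lung cancer cell lines in 1536-well plates were dosed by pin tool one day after seeding, with one drug or with a fixed anchor-drug dose plus five library-drug doses (not always all listed) in √10 steps, and nuclei were counted after 5 days.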

[2] = compound: CN(C)C[C@@H]1CCn2cc(c3ccccc32)C2=C(C(=O)NC2=O)c2cn(c3ccccc23)CCO1 [Ruboxistaurin] + Nc1nc2[nH]cc(CCc3ccc(C(=O)N[C@@H](CCC(=O)O)C(=O)O)cc3)c2c(=O)[nH]1 [Pemetrexed] (partner 0.2 µM)
Summary of the method: as §1

[3] = compound: CN(C)C[C@@H]1CCn2cc(c3ccccc32)C2=C(C(=O)NC2=O)c2cn(c3ccccc23)CCO1 [Ruboxistaurin] + Nc1ncn([C@H]2C[C@H](O)[C@@H](CO)O2)c(=O)n1 [Decitabine] (partner 2 µM)
Summary of the method: as §1

[4] = compound: CN(C)C[C@@H]1CCn2cc(c3ccccc32)C2=C(C(=O)NC2=O)c2cn(c3ccccc23)CCO1 [Ruboxistaurin] + O=C(CCCCCCC(=O)Nc1ccccc1)NO [Vorinostat] (partner 1 µM)
Summary of the method: as §1

Ruboxistaurin + Olaparib = compound: CN(C)C[C@@H]1CCn2cc(c3ccccc32)C2=C(C(=O)NC2=O)c2cn(c3ccccc23)CCO1 [Ruboxistaurin] + O=C(c1cc(Cc2n[nH]c(=O)c3ccccc23)ccc1F)N1CCN(C(=O)C2CC2)CC1 [Olaparib] (partner 8 µM)
Summary of the method: as §1

Row | Cell Line | relative viability ([1]; first compound 0.08 µM) | relative viability ([1]; first compound 0.8 µM) | relative viability ([1]; first compound 2.53 µM) | relative viability ([1]; first compound 8 µM) | relative viability ([2]; first compound 0.08 µM) | relative viability ([2]; first compound 0.8 µM) | relative viability ([2]; first compound 2.53 µM) | relative viability ([2]; first compound 8 µM) | relative viability ([3]; first compound 0.08 µM) | relative viability ([3]; first compound 0.8 µM) | relative viability ([3]; first compound 2.53 µM) | relative viability ([3]; first compound 8 µM) | relative viability ([4]; first compound 0.08 µM) | relative viability ([4]; first compound 0.8 µM) | relative viability ([4]; first compound 2.53 µM) | relative viability ([4]; first compound 8 µM) | relative viability (Ruboxistaurin + Olaparib; first compound 0.08 µM) | relative viability (Ruboxistaurin + Olaparib; first compound 0.8 µM) | relative viability (Ruboxistaurin + Olaparib; first compound 2.53 µM) | relative viability (Ruboxistaurin + Olaparib; first compound 8 µM)
1 | NCI-H2347 | 1.09 | 0.951 | 0.967 | 0.863 | 0.45 | 0.413 | 0.372 | 0.44 | 0.648 | 0.58 | 0.626 | 0.664 | 0.621 | 0.679 | 0.65 | 0.561 | 0.636 | 0.614 | 0.581 | 0.451
2 | LXF-289 | 1.11 | 0.952 | 0.994 | 1 | 0.884 | 0.91 | 0.906 | 1.02 | 0.377 | 0.338 | 0.38 | 0.418 | 0.858 | 0.787 | 0.777 | 0.918 | 1.08 | 1.01 | 1.07 | 1.18
3 | BEN | 1.06 | 1.07 | 0.973 | 0.787 | 0.801 | 0.695 | 0.716 | 0.528 | 0.815 | 0.698 | 0.724 | 0.549 | 0.608 | 0.544 | 0.6 | 0.585 | 1.31 | 0.903 | 1.34 | 0.888
4 | NCI-H2023 | 0.633 | 0.565 | 0.605 | 0.415 | 0.228 | 0.188 | 0.224 | 0.151 | 0.214 | 0.214 | 0.254 | 0.256 | 0.676 | 0.546 | 0.667 | 0.441 | 0.519 | 0.458 | 0.447 | 0.296
5 | NCI-H661 | 0.982 | 0.696 | 0.902 | 0.567 | 0.932 | 0.873 | 0.921 | 0.874 | 0.563 | 0.555 | 0.578 | 0.61 | 0.869 | 0.773 | 0.781 | 0.94 | 0.844 | 0.717 | 0.795 | 0.81
6 | NCI-H1355 | 0.868 | 0.68 | 0.827 | 0.667 | 1.08 | 1 | 1.02 | 1.02 | 0.37 | 0.356 | 0.347 | 0.411 | 0.693 | 0.604 | 0.62 | 0.583 | 0.763 | 0.712 | 0.734 | 0.742
7 | NCI-H1793 | 0.939 | 0.517 | 0.615 | 0.817 | 1.13 | – | 1.03 | 0.876 | 0.461 | – | 0.614 | 0.549 | 0.87 | – | 1.08 | 0.821 | 0.875 | – | 1.17 | 0.873
8 | COR-L 105 | 1.17 | 1.09 | 0.911 | 0.706 | 1.3 | 0.912 | 1.05 | 1.26 | 0.618 | 0.595 | 0.681 | 0.611 | 0.96 | 0.925 | 0.842 | 0.816 | 0.802 | 0.597 | 0.707 | 0.677
